Tested on: E4E4 neurons
Test: qPCR gene expression in E4E4 neurons treated with GPR4 agonist
Type: cell-based, human
Settings: six hours, vs E4E4 vehicle-treated neurons
From the text: Example 1: Cultivation of human isogenic neurons carrying either the homozygous APOE4 genotype (E4E4) or the homozygous APOE3 genotype (E3E3). Commercially available human isogenic neurons were acquired from Fujifilm Cellular Dynamics Inc. The homozygous APOE4 genotype (E4E4) neurons were designated DDP-NRC-1× 01434.779 and herein they are referred to as E4E4 neurons. The homozygous APOE3 genotype (E3E3) neurons were designated R1013 and herein they are referred to as E3E3 neurons. The neurons were plated and cultivated in 96-well plates. Prior to plating of neurons, the manufacturer supplied complete maintenance medium was prepared and stored at 4 degrees Celsius. The 96-well plates were double coated with poly-L-ornithin (PLO Sigma; P4957) and laminin (Sigma; L2020) by first coating the wells with poly-L-ornithin overnight at 4 degrees Celsius. Wells were rinsed with phosphate-buffered saline and then laminin diluted in phosphate-buffered saline at a concentration of 10 micrograms/milliliter was added for three hours. Complete maintenance medium was equilibrated to room temperature. Neurons were thawed for three minutes in a 37 degrees Celsius water bath. The content of the vial was transferred to a 50 ml conical tube by adding one milliliter of room-temperature equilibrated complete maintenance medium and suspending the neurons. The neuron suspension was transferred to the 50 ml conical tube. This neuron suspension was further diluted by addition of eight milliliter of complete maintenance medium. A viable neuron count was performed and the neurons were plated into individual wells of a 96-well plate at a neuronal seed density of 125,000 neurons per cm^2. The E3E3 and the E4E4 containing 96-well plates were transferred into a cell incubator and incubated at 37 degrees Celsius and 5% CO2. E3E3 and E4E4 neurons plated in this way were allowed to attach to the wells of the 96-well plate for 24 hours at which time a 100% medium change to fresh complete maintenance medium was performed. The E3E3 and E4E4 neurons were then continued to be cultivated at 37 degrees Celsius and 5% CO2. On Day 5 after plating a 50% medium change was performed by removal of 50% of the cell supernatant and addition of the same volume of fresh complete maintenance medium and then the 96-well plates were continued to be cultivated at 37 degrees Celsius and 5% CO2. On Day 9 after plating, a 50% medium change was performed by removal of 50% of the cell supernatant and addition of the same volume of fresh complete maintenance medium. This medium change was performed before neurons were treated with compounds on Day 9 after plating.
Example 2: Treatment of E4E4 neurons with the exemplary GPR4 agonist SLC2004 and vehicle and E3E3 neurons with vehicle. E4E4 and E3E3 neurons were plated and cultivated in individual wells of a 96-well plate as described in Example 1. The compound spingosylphosphorylcholine (SLC2004) (Sigma; S4257) is a lyophilized powder with a white to yellow appearance and a molecular weight of 464.62 Dalton. A fresh stock solution of SLC2004 was prepared in methanol as vehicle at a stock concentration of 300 millimolar. This stock solution was further diluted to yield two 21-fold concentrated solutions of the intended in-well concentrations. For one of the 21-fold concentrated SLC2004 solution, a final SLC2004 in-well concentration of 3 micromolar was achieved by adding 10 microliters of this 21-fold concentrated SLC2004 solution to 200 microliters of complete maintenance medium in each well of the 96-well plate. For the second 21-fold concentrated SLC2004 solution, a final SLC2004 in-well concentration of 10 micromolar was achieved by adding 10 microliters of this 21-fold concentrated SLC2004 solution to 200 microliters of complete maintenance medium in each well of the 96-well plate. All wells with SLC2004-treated neurons contained the same amount of 0.01% methanol in complete maintenance medium. […]

## CCCCCCCCCCCCC/C=C/[C@@H](O)[C@@H](N)COP(=O)([O-])OCC[N+](C)(C)C [SLC2004, sphingosylphosphorylcholine]
3 micromolar
  expression of CCND3: upregulated
  expression of ITGB3: downregulated
  expression of VCL: upregulated
10 micromolar
  expression of BDNF: upregulated
  expression of CTGF: upregulated
  expression of YAP1: upregulated
